In US10238658B2, “1-pyrazolyl-3-(4-((2-anilinopyrimidin-4-yl) oxy) napththalen-1-yl) ureas as p38 MAP kinase inhibitors” (Respivert Limited, priority 2011, dated 2019):

Tests used:
Type in all cases: cell-based
IL-8 [1] = assay: LPS-induced IL-8 release in d-U937 cells; conditions: Homo sapiens, dU937, dU937 cells
Procedure: (§1) U937 cells, a human monocytic cell line, were differentiated into macrophage-type cells by incubation with PMA (100 ng/mL) for 48 to 72 hr. Cells were pre-incubated with final concentrations of test compound for 2 hr and were then stimulated with LPS (0.1 μg/mL; from E. Coli: O111:B4, Sigma) for 4 hr. The supernatant was collected for determination of TNFα and IL-8 concentrations by sandwich ELISA (Duo-set, R&D systems). […] The relative 50% effective concentration (REC50) was determined from the resultant concentration-response curve. The inhibition of IL-8 production was calculated at each concentration of test compound by comparison with vehicle control.

TNFα [2] = assay: LPS-induced TNFα release in THP-1 cells; conditions: Homo sapiens, THP-1, THP1 cells
Procedure: THP-1 cells, a human monocytic cell line, were stimulated with 3 μg/mL of LPS (from E. Coli; 0111:B4, Sigma) for 4 hr and the supernatant collected for determination of the TNFα concentration by sandwich ELISA (Duo-set, R&D systems). The inhibition of TNFα production was calculated at each concentration by comparison with vehicle control.

IL-8 [3] = assay: Rhinovirus-induced IL-8 release in BEAS2B cells; conditions: Homo sapiens, BEAS-2B, at 0.04 μg/mL; read-out: HRV IL-8 (BEAS2B) % inhibition
Procedure: Human rhinovirus RV16 was obtained from the American Type Culture Collection (Manassas, Va.). Viral stocks were generated by infecting Hela cells with HRV until 80% of the cells were cytopathic.
BEAS2B cells were infected with HRV at an MOI of 5 and incubated for 2 hr at 33° C. with gentle shaking for to promote absorption. The cells were then washed with PBS, fresh media added and the cells were incubated for a further 72 hr. The supernatant was collected for assay of IL-8 concentrations using a Duoset ELISA development kit (R&D systems, Minneapolis, Minn.). […]

HRV16 = HRV16 induced CPE in MRC5 cells; conditions: Human rhinovirus sp., HRV16, MRC5, at 0.04 μg/mL; read-out: HRV CPE (MRC5) % inhibition
Procedure: The supernatants were aspirated, and then fresh media added followed by incubation for 4 days. Where appropriate, cells were pre-incubated with compound or DMSO for 2 hr, and the compounds and DMSO added again after washout of the virus.
The percentage inhibition for each well was calculated. The IC50 value was calculated from the concentration-response curve generated by the serial dilutions of the test compounds.

TNFα [4] = assay: LPS-induced TNFα release in d-U937 cells; conditions: Homo sapiens, dU937, dU937 cells; relative to 10 μg/mL BIRB796; read-out: LPS Induced Release TNFα REC50 (dU937)
Procedure: as §1

PBMC = assay: Cell mitosis assay; conditions: Homo sapiens
Procedure: Peripheral blood mononucleocytes (PBMCs) from healthy subjects were separated from whole blood (Quintiles, London, UK) using a density gradient (Histopaque®-1077, Sigma-Aldrich, Poole, UK). The PBMCs (3 million cells per sample) were subsequently treated with 2% PHA (Sigma-Aldrich, Poole, UK) for 48 hr, followed by a 20 hr exposure to varying concentrations of test compounds. At 2 hr before collection, PBMCs were treated with demecolcine (0.1 μg/mL; Invitrogen, Paisley, UK,) to arrest cells in metaphase. To observe mitotic cells, PBMCs were permeabilised and fixed by adding Intraprep (50 μL; Beckman Coulter, France), and stained with anti-phospho-histone 3 ([…]; #9701; Cell Signalling, Danvers, Mass.) and propidium iodide (1 mg/mL; Sigma-Aldrich, Poole, UK,) as previously described (Muehlbauer P. A. and Schuler M. J., Mutation Research, 2003, 537:117-130). Fluorescence was observed using an ATTUNE flow cytometer (Invitrogen, Paisley, UK), gating for lymphocytes.

Compound | IC50 (IL-8 [1]) [nM] | IC50 (TNFα [2]) [nM] | inhibition at 0.04 µg/mL (IL-8 [3]) [%] | inhibition at 0.04 µg/mL (HRV16) [%] | EC50 (TNFα [4]) [nM] | inhibition at 1 µg/mL (PBMC; read-out: Mitosis Assay % inhibition in PBMC Cells at concn 1 μg/mL) [%] | inhibition at 5 µg/mL (PBMC; read-out: Mitosis Assay % inhibition in PBMC Cells at concn 5 μg/mL) [%]
CC(C)(C)c1cc(NC(=O)Nc2ccc(Oc3ccnc(Nc4ccccc4)n3)c3ccccc23)n(-c2ccc(O)cc2)n1 [Example 3, 1-(3-(tert-butyl)-1-(4-hydroxyphenyl)-1H-pyrazol-5-yl)-3-(4-((2-(phenylamino)pyrimidin-4-yl)oxy)naphthalen-1-yl)urea] | 1.8 | 1.2 | 100 | 100 | 1.7 | – | –
Cc1ccc(-n2nc(C(C)(C)C)cc2NC(=O)Nc2ccc(Oc3ccnc(Nc4ccccc4F)n3)c3ccccc23)cc1 [Example 4, 1-(3-(tert-butyl)-1-(p-tolyl)-1H-pyrazol-5-yl)-3-(4-((2-((2-fluorophenyl)amino)pyrimidin-4-yl)oxy)naphthalen-1-yl)urea] | 2.3 | 4.6 | 100 | 44 | 3.1 | – | –
Cc1ccc(-n2nc(C(C)(C)C)cc2NC(=O)Nc2ccc(Oc3ccnc(Nc4ccccc4Cl)n3)c3ccccc23)cc1 [Example 6, 1-(3-(tert-butyl)-1-(p-tolyl)-1H-pyrazol-5-yl)-3-(4-((2-((2-chlorophenyl)amino)pyrimidin-4-yl)oxy)naphthalen-1-yl)urea] | 15 | 225 | – | – | 7 | – | –
Cc1ccc(-n2nc(C(C)(C)C)cc2NC(=O)Nc2ccc(Oc3ccnc(Nc4cc(C)ccc4C)n3)c3ccccc23)cc1 [Example 10, 1-(3-(tert-butyl)-1-(p-tolyl)-1H-pyrazol-5-yl)-3-(4-((2-((2,5-dimethylphenyl)amino)pyrimidin-4-yl)oxy)naphthalen-1-yl)urea] | 15 | 45 | 100 | 100 | 15 | – | –
Cc1ccc(Nc2nccc(Oc3ccc(NC(=O)Nc4cc(C(C)(C)C)nn4-c4ccc(C)cc4)c4ccccc34)n2)cc1 [Example 11, 1-(3-(tert-butyl)-1-(p-tolyl)-1H-pyrazol-5-yl)-3-(4-((2-(p-tolylamino)pyrimidin-4-yl)oxy)naphthalen-1-yl)urea] | > 1680 | 21 | 100 | 100 | 35 | – | –
Cc1ccc(-n2nc(C(C)(C)C)cc2NC(=O)Nc2ccc(Oc3ccnc(Nc4cccc(C)c4)n3)c3ccccc23)cc1 [Example 12, 1-(3-(tert-butyl)-1-(p-tolyl)-1H-pyrazol-5-yl)-3-(4-((2-(m-tolylamino)pyrimidin-4-yl)oxy)naphthalen-1-yl)urea] | 2.4 | 30 | 100 | 100 | 2 | – | –
Cc1ccc(-n2nc(C(C)(C)C)cc2NC(=O)Nc2ccc(Oc3ccnc(Nc4cccc(Cl)c4)n3)c3ccccc23)cc1 [Example 13, 1-(3-(tert-butyl)-1-(p-tolyl)-1H-pyrazol-5-yl)-3-(4-((2-((3-chlorophenyl)amino)pyrimidin-4-yl)oxy)naphthalen-1-yl)urea] | > 1620 | 1600 | 100 | 100 | > 1620 | – | –
COc1cccc(Nc2nccc(Oc3ccc(NC(=O)Nc4cc(C(C)(C)C)nn4-c4ccc(C)cc4)c4ccccc34)n2)c1 [Example 14, 1-(3-(tert-butyl)-1-(p-tolyl)-1H-pyrazol-5-yl)-3-(4-((2-((3-methoxyphenyl)amino)pyrimidin-4-yl)oxy)naphthalen-1-yl)urea] | 1.6 | 2.7 | 100 | 100 | 2 | – | –
Cc1ccc(-n2nc(C(C)(C)C)cc2NC(=O)Nc2ccc(Oc3ccnc(Nc4cccc(F)c4)n3)c3ccccc23)cc1 [Example 15, 1-(3-(tert-butyl)-1-(p-tolyl)-1H-pyrazol-5-yl)-3-(4-((2-((3-fluorophenyl)amino)pyrimidin-4-yl)oxy)naphthalen-1-yl)urea] | 2.3 | 3 | 100 | 100 | 2.2 | – | –
COc1ccc(Nc2nccc(Oc3ccc(NC(=O)Nc4cc(C(C)(C)C)nn4-c4ccc(C)cc4)c4ccccc34)n2)cc1 [Example 17, 1-(3-(tert-butyl)-1-(p-tolyl)-1H-pyrazol-5-yl)-3-(4-((2-((4-methoxyphenyl)amino)pyrimidin-4-yl)oxy)naphthalen-1-yl)urea] | 2.1 | 4.3 | 100 | ≤ 0 | 2 | – | –
Cc1ccc(-n2nc(C(C)(C)C)cc2NC(=O)Nc2ccc(Oc3ccnc(Nc4ccccc4C(C)C)n3)c3ccccc23)cc1 [Example 20, 1-(3-(tert-butyl)-1-(p-tolyl)-1H-pyrazol-5-yl)-3-(4-((2-((2-isopropylphenyl)amino)pyrimidin-4-yl)oxy)naphthalen-1-yl)urea] | 23 | 121 | 100 | ≤ 0 | 18 | – | –
COc1cc(Nc2nccc(Oc3ccc(NC(=O)Nc4cc(C(C)(C)C)nn4-c4ccc(C)cc4)c4ccccc34)n2)ccc1O [Example 25, 1-(3-(tert-butyl)-1-(p-tolyl)-1H-pyrazol-5-yl)-3-(4-((2-((4-hydroxy-3-methoxyphenyl)amino)pyrimidin-4-yl)oxy)naphthalen-1-yl)urea] | 1.5 | 0.4 | 100 | – | 0.84 | 29.1 | 63.5
COc1ccc(Nc2nccc(Oc3ccc(NC(=O)Nc4cc(C(C)(C)C)nn4-c4ccc(C)cc4)c4ccccc34)n2)cc1Cl [Example 28, 1-(3-(tert-butyl)-1-(p-tolyl)-1H-pyrazol-5-yl)-3-(4-((2-((3-chloro-4-methoxyphenyl)amino)pyrimidin-4-yl)oxy)naphthalen-1-yl)urea] | 18 | 0.4 | 100 | 54 | 14 | – | –
Cc1ccc(-n2nc(C(C)(C)C)cc2NC(=O)Nc2ccc(Oc3ccnc(Nc4ccc(O)cc4F)n3)c3ccccc23)cc1 [Example 30, 1-(3-(tert-butyl)-1-(p-tolyl)-1H-pyrazol-5-yl)-3-(4-((2-((2-fluoro-4-hydroxyphenyl)amino)pyrimidin-4-yl)oxy)naphthalen-1-yl)urea] | 3 | 1.6 | 100 | ≤ 0 | 1 | – | –
Cc1ccc(-n2nc(C(C)(C)C)cc2NC(=O)Nc2ccc(Oc3ccnc(Nc4ccc(O)cc4Cl)n3)c3ccccc23)cc1 [Example 31, 1-(3-(tert-butyl)-1-(p-tolyl)-1H-pyrazol-5-yl)-3-(4-((2-((2-chloro-4-hydroxyphenyl)amino)pyrimidin-4-yl)oxy)naphthalen-1-yl)urea] | 32 | 6.1 | 100 | ≤ 0 | 16 | – | –
COCC(=O)Nc1cc(Oc2ccc(NC(=O)Nc3cc(C(C)(C)C)nn3-c3ccc(C)cc3)c3ccccc23)ccn1 [Reference Compound, N-(4-(4-(3-(3-tert-butyl-1-p-tolyl-1H-pyrazol-5-yl)ureido)naphthalen-1-yloxy)pyridin-2-yl)-2-methoxyacetamide, reference compound] | – | – | – | – | 0.13 | – | –
